Data on 11 molecules can be found in US8715959B2, “Substitution mutant receptors and their use in a nuclear receptor-based inducible gene expression system” (priority 2001, dated 2014).

Assay [1] concerns A110P mutant CfEcR. Kind of assay: In vitro ligand binding assay with 3H-RH2485 and cold competitors, full-length A110P mutant (FIG. 1). Also noted: species or system Choristoneura fumiferana. To be noted: cold ligand as competitor of 3H-RH2485. The method, then: (§1) Applicants tested the A110P mutant CfEcR receptor in a steroid and non-steroid ligand binding assay to confirm that steroid binding was eliminated. Briefly, PonA binding activity was determined using an in vitro ligand binding assay (LBA). Steroid ligand binding assay (LBA) was performed using ^3H-PonA (200 Ci/mmol). In vitro translated Gal4/wild-type or A110P mutant CfEcR-DEF and bacterial expressed GST-CfUSP-A/BCDEF were used in the assay. The assay was performed with 8 μL of Gal4/wild-type or A110P mutant CfEcR-DEF, 2.5 uL of GST-CfUSP-A/BCDEF, 1 μL of ^3H-PonA, and 2 μL of unlabeled (“cold”) PonA as competitor in the presence of T buffer [90 mM Tris pH 8.0, 10 μM DTT comprising Complete™ protease inhibitor cocktail used according to the manufacturer's instructions (Boehringer Mannheim)]. The reaction was carried out at room temperature for 1 hour followed by the addition of dextran-coated charcoal (Sigma). The mixture was centrifuged at 7000×g for 10 minutes the amount of ^3H-PonA in the supernatant was measured. The reactions were done in triplicate. The full-length WT EcR or its A110P mutant were also in vitro translated and transcribed using the TNT system (Promega) according to the manufacturer's instructions and tested in in vitro ligand binding assays using 3H-RH2485, with cold 20E or non-steroids (RH2485 and GS™-E) as competitors. In addition, 5 μL of the in vitro translations were assayed for translation efficiency using SDS-PAGE following standard methods (Maniatis, 1989). The ligand binding results for both the wild-type and A110P mutant CfEcR-DEF receptors were calculated and are shown in FIG. 1.

The test system of assay [2] is WT full-length EcR. Kind of assay: In vitro ligand binding assay with 3H-RH2485 and cold competitors, full-length WT EcR (FIG. 1). Also noted: species or system Choristoneura fumiferana. To be noted: cold ligand as competitor. The method, then:
as §1

Assay [3] deals with T1, wild-type CfEcR-A/BCDEF (Choristoneura fumiferana, UniProt O77240).
T1 construct: "The full-length spruce budworm Choristoneura fumiferana EcR (“CfEcR-A/BCDEF”); b350 and b353 describe plain full-length EcR translated in vitro
Kind of assay: 3H-RH2485 competition ligand binding, wild-type CfEcR-A/BCDEF with CfUSP.

Assay [4] deals with A110P mutant CfEcR-A/BCDEF (Choristoneura fumiferana, UniProt O77255, A393P). Kind of assay: 3H-RH2485 competition ligand binding, A110P mutant CfEcR-A/BCDEF with CfUSP. As to the method:
The ligand binding affinities of the A110P GAL4/CfEcR mutant were measured by binding ^3H-RH2485 and competing it with different concentrations of cold steroids or non-steroids. Briefly, 3H-RH2485 was bound to in vitro translated full-length CfEcR and bacterially expressed CfUSP and competed with increasing concentrations of cold steroidal or non-steroidal ligands. The reaction was carried out at room temperature for 1 hour followed by addition of activated dextran coated charcoal and centrifugation at 7000×g for 10 minutes at 4° C. The residual ^3H-RH2485 in the supernatant after centrifugation was measured using a scintillation counter. The fraction bound (f bound) values were determined and plotted against the concentration of ligand (in mM).

The test system of assay [5] is CfEcR-DEF. Kind of assay: GAL4/mutant CfEcR-DEF + VP16/LmUSP-EF GAL4-driven luciferase reporter transactivation in NIH3T3 cells. The format is cell-based, Choristoneura fumiferana.
The subject of assay [6] is CfEcR-A/BCDEF. Kind of assay: GAL4/full length CfEcR-A/BCDEF or A110P mutant, EcRE-driven luciferase reporter in NIH3T3 cells (FIG. 2). The format is cell-based, Choristoneura fumiferana. The settings on record: 40 hours. The text has this: To eliminate the possibility that the loss of steroid activity may be due to the truncated CfEcR-DEF receptor or an artifact of the GAL4 fusion protein, Applicants introduced the A110P mutation into the full length (FL) CfEcR (CfEcR-A/BCDEF), fused it to the GAL4 DNA binding domain as described in Example 1.4, and comparatively assayed it in NIH3T3 cells in 24-well plates as described in Example 2 above with full length wild type CfEcR (Example 1.3) in combination with VP16/LmUSP-EF and pFREcRE Luc that comprised the luciferase reporter gene operatively linked to six copies of the ecdysone response element (6×EcRE) and a synthetic TATAA. The transfected cells were grown in the presence of 0.25 or 10 μM PonA or GS™-E and the reporter activity was measured at 40 hours after adding ligand. The cells were harvested and the extracts were assayed for luciferase activity. The numbers on top of the bars indicate fold increase over DMSO levels.
A general note: A reporter such as luciferase makes a cellular process visible.

Assay [7] relates to CfEcR. Kind of assay: In vitro 3H-PonA ligand binding of CfEcR wild-type and A110 mutants (FIG. 5). The settings on record: in vitro translated receptor with GST-CfUSP-A/BCDEF. Also noted: species or system Choristoneura fumiferana.
Assay [8] relates to CfEcR-CDEF. The settings on record: L57 cells, 40 hours, FIG. 3.
Excerpt: To determine whether the A110P mutant can respond to 20E, Applicants tested this A110P mutant-based gene expression system in an EcRE-driven reporter assay in insect L57 cells (a Drosophila melanogaster cell line that lacks EcR isoform B, the Drosophila melanogaster EcR isoform homolog of CfEcR isoform B from which the A110P mutant is derived, however L57 cells still contain EcR isoform A). The mutation was introduced into the VP16/CfEcR-CDEF fusion protein and operably linked to an baculovirus IE1 promoter and L57 cells were transfected with IE1VP16CfEcRCDEF (Example 1.5) or its A110P mutant version DNA (Example 1.6) along with a pMK43.2 β-galactosidase reporter gene under the control of 6× ecdysone response elements (“6×EcRE”; the pMK43.2 construct was obtained from Michael Koelle at Stanford University) in 24-well plates. Reporter activity for A110P mutant-based gene expression system transactivation was measured after 40 hours of treatment of the transfected cells with 0, 1, 10, 100, or 1000 nM 20E or GS™-E. The cells were harvested and the extracts were assayed for β-galactosidase (β-gal) and luciferase activity. β-Galactosidase was measured using Galacto-Star™ assay kit from TROPIX following the manufacturer's instructions.
Assay [9] relates to CfEcR-DEF. Kind of assay: GAL4 fusions of A110 mutants of CfEcR-DEF, reporter transactivation in NIH3T3 cells (FIG. 4). The format is cell-based, Choristoneura fumiferana. The settings on record: 0.04-25 μM GS™-E or RH-125020, 48 hours. As to the method:
Four mutations: A110S, A110P, A110L, and A110M were obtained. These four mutant and wild-type receptors were assayed in NIH3T3 cells.

With `CCc1c(OC)cccc1C(=O)NN(C(=O)c1cc(C)cc(C)c1)C(C)(C)C` [GS ™-E, N-(2-ethyl-3-methoxybenzoyl)-N′-(3,5-dimethylbenzoyl)-N′-tert-butylhydrazine], the “binding of ligand by the A110P mutant” value in [1] is “unaffected”. Further, the “competition with bound 3H-RH2485 (binding to WT full-length EcR)” value (“competition with bound 3H-RH2485” below) in assay [2] is reported as “able to effectively compete”. Besides, the half-inhibitory concentration (IC50) (as a rule, the point on the concentration scale where inhibition reaches its midpoint) in assay [3] was 0.0853 µM; in [4] it was 0.0129 µM.
On to `CC(C)CC[C@@H](O)[C@](C)(O)[C@H]1CC[C@@]2(O)C3=CC(=O)[C@]4(O)C[C@@H](O)[C@@H](O)C[C@]4(C)[C@H]3[C@H](O)C[C@]12C` [Muristerone A, muristeroneA], for which the IC50 is 0.424 µM in [3] and more than 1000 µM in assay [4].
For `CC(C)(O)CC[C@@H](O)[C@](C)(O)[C@H]1CC[C@@]2(O)C3=CC(=O)[C@@H]4C[C@@H](O)[C@@H](O)C[C@]4(C)[C@H]3CC[C@]12C` [Mutant 20E, 20-hydroxyecdysone], the “binding of ligand by the A110P mutant” value in [1] is “completely disrupted”. Moreover, the “competition with bound 3H-RH2485” value in assay [2] is reported as “able to effectively compete”.
On to `CC(C)CC[C@@H](O)[C@](C)(O)[C@H]1CC[C@@]2(O)C3=CC(=O)[C@@H]4C[C@@H](O)[C@@H](O)C[C@]4(C)[C@H]3CC[C@]12C` [Ponasterone A, ponasterone A], for which the IC50 in [3] is 0.346 µM; in assay [4], more than 1000 µM.
Take `COc1cccc(C(=O)NN(C(=O)c2cc(C)cc(C)c2)C(C)(C)C)c1C` [RH-2485, N′-tert-butyl-N′-(3,5-dimethylbenzoyl)-3-methoxy-2-methylbenzohydrazide]: in assay [1], the “binding of ligand by the A110P mutant” value is reported as “unaffected”. Moreover, the “competition with bound 3H-RH2485” value in assay [2] is recorded as “able to effectively compete”. The half-maximal inhibitory concentration (IC50) in assay [3] is 1.8 µM; in [4] it was 0.35 µM.
Take `CCc1ccc(C(=O)NN(C(=O)c2cc(C)cc(C)c2)C(C)(C)C)cc1` [RH-5992]: the concentration for half-maximal inhibition (IC50) stood at 0.133 µM in [3] and 0.322 µM in assay [4].
The matching figures for `Cc1cc(C)cc(C(=O)N(NC(=O)c2ccc3c(c2C)OCCO3)C(C)(C)C)c1` [RH-125020, N′-tert-butyl-N′-(3,5-dimethylbenzoyl)-3,4-(1,2-ethylenedioxy)-2-methylbenzohydrazide]: 0.0101 µM and 0.0257 µM.

B1: A110P: CfEcR LBD substitution mutant, Alanine (A) to Proline (P); also made in CfEcR-A/BCDEF and CfEcR-CDEF (protein, listed as Choristoneura fumiferana)
chain: LTANQQFLIARLIWYQDGYEQPSDEDLKRITQTWQQADDENEESDTPFRQITEMTILTVQLIVEFAKGLPGFAKISQPDQITLLKACSSEVMMLRVARRYDAASDSVLFPNNQAYTRDNYRKAGMAYVIEDLLHFCRCMYSMALDNIHYALLTAVVIFSDRPGLEQPQLVEEIQRYYLNTLRIYILNQLSGSARSSVIYGKILSILSELRTLGMQNSNMCISLKLKNRKLPPFLEEIWDV
In the case of B1, the “Fold increase over WT, 2.5 μM GS™-E” value in assay [5] (2.5 μM GS™-E non-steroidal ligand, NIH3T3 cells, relative to Gal4/wild-type CfEcR-DEF switch activity) is 0.8 fold. The “Fold increase over WT, 2.5 μM PonA” value in [5] (2.5 μM PonA steroidal ligand, NIH3T3 cells, relative to Gal4/wild-type CfEcR-DEF switch activity) is 0.005 fold. Further, in assay [5] (GS™-E, CfEcR-DEF point mutants), the “non-steroid activity (summary of Table 10)” value is listed as “not significantly affected”. The “steroid binding activity (summary of Table 10)” value in assay [5] (PonA, CfEcR-DEF point mutants) is given as “essentially eliminated”. Also, the “non-steroid activity of full length receptor versus full length WT CfEcR” value in [6] (0.25 or 10 μM GS™-E) was “no significant difference”. Also, the “PonA activity of full length receptor” value in assay [6] (0.25 or 10 μM PonA) is on record as “completely lost”. Further, the “PonA binding, of wild-type receptor binding” value in [7] is recorded as “undetectable”. For the same molecule, in assay [8] (1-1000 nM 20E), the “reporter gene activity in the presence of 20E” value is listed as “slightly increased reporter gene activity”. The “reporter gene expression in the presence of GS™-E” value in assay [8] (1-1000 nM GS™-E) was “transactivated reporter gene expression”.

B2: A110S: CfEcR-DEF LBD substitution mutant, Alanine (A) to Serine (S) (protein, listed as Choristoneura fumiferana)
chain: LTANQQFLIARLIWYQDGYEQPSDEDLKRITQTWQQADDENEESDTPFRQITEMTILTVQLIVEFAKGLPGFAKISQPDQITLLKACSSEVMMLRVARRYDAASDSVLFSNNQAYTRDNYRKAGMAYVIEDLLHFCRCMYSMALDNIHYALLTAVVIFSDRPGLEQPQLVEEIQRYYLNTLRIYILNQLSGSARSSVIYGKILSILSELRTLGMQNSNMCISLKLKNRKLPPFLEEIWDV
For B2, the “non-steroid reporter activity compared to wild-type receptor” value in assay [9] was “lower sensitivity and no detectable transactivation at the two lowest concentrations”.

B3: A110M: CfEcR-DEF LBD substitution mutant, Alanine (A) to Methionine (M) (protein, listed as Choristoneura fumiferana)
chain: LTANQQFLIARLIWYQDGYEQPSDEDLKRITQTWQQADDENEESDTPFRQITEMTILTVQLIVEFAKGLPGFAKISQPDQITLLKACSSEVMMLRVARRYDAASDSVLFMNNQAYTRDNYRKAGMAYVIEDLLHFCRCMYSMALDNIHYALLTAVVIFSDRPGLEQPQLVEEIQRYYLNTLRIYILNQLSGSARSSVIYGKILSILSELRTLGMQNSNMCISLKLKNRKLPPFLEEIWDV
As to B3, the “non-steroid reporter activity compared to wild-type receptor” value in assay [9] was “lower sensitivity and no detectable transactivation at the two lowest concentrations”.

B4: A110L: CfEcR-DEF LBD substitution mutant, Alanine (A) to Leucine (L) (protein, listed as Choristoneura fumiferana)
chain: LTANQQFLIARLIWYQDGYEQPSDEDLKRITQTWQQADDENEESDTPFRQITEMTILTVQLIVEFAKGLPGFAKISQPDQITLLKACSSEVMMLRVARRYDAASDSVLFLNNQAYTRDNYRKAGMAYVIEDLLHFCRCMYSMALDNIHYALLTAVVIFSDRPGLEQPQLVEEIQRYYLNTLRIYILNQLSGSARSSVIYGKILSILSELRTLGMQNSNMCISLKLKNRKLPPFLEEIWDV
For the molecule B4, in [9], the “non-steroid reporter activity compared to wild-type receptor” value was “lower sensitivity and no detectable transactivation at the two lowest concentrations”.
